Test results from US20120277299A1, “METHOD FOR MODULATING ION TRANSPORTER” (SUCAMPO AG, priority 2011, published 2012).

Tested on: Na^+/K^+/Cl^− cotransporter
Assay: 86Rb uptake assay for Na+/K+/Cl− cotransporter activity in A7r5 cells
Type: cell-based, Rat
Conditions: for effect on 86Rb uptake (activation of Na+/K+/Cl− cotransporter): 0.01 μM to 10 μM; for % control activity: 86Rb uptake, 10 min at 37° C.
Experimental: The effect of Compound 1 ((−)-7-[(2R,4aR,5R,7aR)-2-(1,1-difluoropentyl)-2-hydroxy-6-oxooctahydrocyclopenta[b]pyran-5-yl]heptanoic acid) and Compound 2 ((−)-7-{(2R,4aR,5R,7aR)-2-[(3S)-1,1-difluoro-3-methylpentyl]-2-hydroxy-6-oxooctahydrocyclopenta[b]pyran-5-yl}heptanoic acid) on […] cotransporter were assessed by ^86Rb uptake. Rat aorta-derived smooth muscle cells (A7r5) cells were cultured to sub-confluent on culture dishes and used for the assay. The culture medium was removed and replaced by uptake medium that contains labeled isotope (47 μM ^86Rb) and each compound.
After 10 min incubation at 37° C., uptake medium was removed and extracellular radioactivity was washed using 0.1M […] solution. The cells were harvested in 0.1M NaOH and the radioactivity incorporated by the cells was determined. Compound1 and 2 were tested at concentrations ranging from 0.01 μM to 10 μM and each determination was made in duplicate.

| SMILES | effect on 86Rb uptake (activation of Na+/K+/Cl− cotransporter) | % control activity (compound 0.01 μM) [%] | % control activity (compound 0.03 μM) [%] | % control activity (compound 0.1 μM) [%] | % control activity (compound 0.3 μM) [%] | % control activity (compound 1 μM) [%] | % control activity (compound 3 μM) [%] | % control activity (compound 10 μM) [%] |
| --- | --- | --- | --- | --- | --- | --- | --- | --- |
| CC[C@H](C)CC(F)(F)[C@@]1(O)CC[C@H]2[C@@H](CC(=O)[C@@H]2CCCCCCC(=O)O)O1 [Compound 2, (−)-7-{(2R,4aR,5R,7aR)-2-[(3S)-1,1-difluoro-3-methylpentyl]-2-hydroxy-6-oxooctahydrocyclopenta[b]pyran-5-yl}heptanoic acid] | increased ^86Rb uptake concentration-dependently | 108.1 | 143.0 | 157.4 | 171.3 | 168.5 | 213.6 | 205.1 |
| CCCCC(F)(F)[C@@]1(O)CC[C@H]2[C@@H](CC(=O)[C@@H]2CCCCCCC(=O)O)O1 [Compound 1, (−)-7-[(2R,4aR,5R,7aR)-2-(1,1-difluoropentyl)-2-hydroxy-6-oxooctahydrocyclopenta[b]pyran-5-yl]heptanoic acid] | increased ^86Rb uptake concentration-dependently | 82.7 | 115.7 | 122.6 | 133.2 | 134.2 | 152.3 | 175.5 |
